Laboratory results reported in ChEMBL document CHEMBL1201862, “PubChem BioAssay data set” (2004).
The source made the active and inactive calls.

Columns and labels:
[1] = target: T1, Replicative DNA helicase DnaB (Mycobacterium tuberculosis, UniProt P9WMR3); assay: DnaB intein splicing inhibitors, dose response, biochemical, cell-free fluorescence (AID 449749); format: functional
T1 sequence (P9WMR3 whole entry): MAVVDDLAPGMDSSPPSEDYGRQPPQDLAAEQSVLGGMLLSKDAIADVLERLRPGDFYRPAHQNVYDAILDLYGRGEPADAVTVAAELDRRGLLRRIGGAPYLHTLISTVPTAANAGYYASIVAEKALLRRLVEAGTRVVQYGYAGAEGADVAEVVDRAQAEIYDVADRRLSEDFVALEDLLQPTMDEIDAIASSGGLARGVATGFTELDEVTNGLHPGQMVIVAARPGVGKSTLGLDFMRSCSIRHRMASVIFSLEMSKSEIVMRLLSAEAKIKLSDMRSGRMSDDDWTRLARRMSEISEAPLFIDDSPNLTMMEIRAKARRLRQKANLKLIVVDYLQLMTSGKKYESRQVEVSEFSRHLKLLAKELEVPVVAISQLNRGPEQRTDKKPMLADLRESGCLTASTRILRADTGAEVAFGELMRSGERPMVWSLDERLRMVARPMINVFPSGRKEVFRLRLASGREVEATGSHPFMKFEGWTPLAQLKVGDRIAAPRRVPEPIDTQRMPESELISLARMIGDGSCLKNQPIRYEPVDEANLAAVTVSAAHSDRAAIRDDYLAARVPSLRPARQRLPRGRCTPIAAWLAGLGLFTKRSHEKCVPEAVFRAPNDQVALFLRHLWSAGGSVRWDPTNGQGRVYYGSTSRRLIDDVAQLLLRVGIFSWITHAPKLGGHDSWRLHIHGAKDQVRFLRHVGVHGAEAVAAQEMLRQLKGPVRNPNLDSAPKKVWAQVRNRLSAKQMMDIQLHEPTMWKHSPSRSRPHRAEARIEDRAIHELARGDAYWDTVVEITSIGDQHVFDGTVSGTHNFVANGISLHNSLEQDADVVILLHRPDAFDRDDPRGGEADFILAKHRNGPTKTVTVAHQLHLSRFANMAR

[2] = target: Tyrosyl-DNA phosphodiesterase 2 (Homo sapiens, UniProt O95551); assay: potency against TDP2 phosphodiesterase activity – biochemical, epi absorbance, IC50, dose response (AID 743297)
[3] = target: Apoptotic protease-activating factor 1 (Homo sapiens, UniProt O14727); format: functional
[4] = tested on: Streptococcus; assay: GAS UMAA2166 growth inhibition – luminescence, BacTiterGlo, counter-screen for streptokinase expression inhibitor project, dose response (AID 1915); format: functional, organism-based;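 further: potency for reduction of bacterial viability or growth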
[5] = tested on: Streptococcus sp. 'group A'; assay: Streptococcus pyogenes SK(-)GAS viability under kanamycin – luminescence, BacTiterGlo, confirmation, counter-screen for streptokinase expression inhibitor project, dose response (AID 1900); format: functional, organism-based
[6] = target: Vascular endothelial growth factor receptor 2 (Homo sapiens, UniProt P35968); format: functional
[7] = target: Casein kinase II subunit alpha (Homo sapiens, UniProt P68400); format: functional
[8] = target: Serine/threonine-protein kinase pim-3 (Homo sapiens, UniProt Q86V86); format: functional;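 further: value obtained as one member of a broad kinase panel profiling effort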
[9] = target: Megakaryocyte-associated tyrosine-protein kinase (Homo sapiens, UniProt P42679); format: functional;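 further: affinity measured as one member of a kinase panel (Navigating the Kinome) against MATK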
[10] = target: Fibroblast growth factor receptor 3 (Homo sapiens, UniProt P22607); format: functional
[11] = target: Serine/threonine-protein kinase D2 (Homo sapiens, UniProt Q9BZL6); format: functional;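 further: measured against PRKD2 as one member of a kinome-wide kinase profiling panel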
[12] = target: Interleukin-1 receptor-associated kinase 4 (Homo sapiens, UniProt Q9NWZ3); format: functional
[13] = target: Serine/threonine-protein kinase BRSK1 (Homo sapiens, UniProt Q8TDC3); format: functional;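 further: measured within a kinome-wide kinase panel, with the target listed as KIAA1811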
[14] = target: Serine/threonine-protein kinase PLK4 (Homo sapiens, UniProt O00444); format: functional;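 further: PLK4 measured as one member of a kinome-wide kinase profiling panel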
[15] = target: MAP/microtubule affinity-regulating kinase 3 (Homo sapiens, UniProt P27448); format: functional;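 further: MARK3 affinity measured as one member of a kinome panel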
[16] = target: Vascular endothelial growth factor receptor 3 (Homo sapiens, UniProt P35916); format: functional;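 further: value from a kinome-wide profiling panel, with FLT4 as the panel member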
[17] = target: MAP kinase-activated protein kinase 2 (Homo sapiens, UniProt P49137); format: functional;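 further: measured as one member of a kinome-wide kinase panel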
[18] = target: Receptor tyrosine-protein kinase erbB-4 (Homo sapiens, UniProt Q15303); format: functional;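 further: ERBB4 member of a kinome-wide kinase profiling panel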
[19] = target: Tyrosine-protein kinase Lyn (Homo sapiens, UniProt P07948); format: functional;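 further: lyn as one member of a kinase panel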
[20] = target: Casein kinase I isoform gamma-1 (Homo sapiens, UniProt Q9HCP0); format: functional;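 further: measured as the CSNK1G1 member of a kinome profiling panel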
[21] = target: Ribosomal protein S6 kinase beta-1 (Homo sapiens, UniProt P23443); format: functional;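 further: measured as one member of a kinome-wide profiling panel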
[22] = target: Calcium/calmodulin-dependent protein kinase type II subunit gamma (Homo sapiens, UniProt Q13555); format: functional
[23] = target: Mitogen-activated protein kinase kinase kinase 20 (Homo sapiens, UniProt Q9NYL2); format: functional
[24] = target: Testis-specific serine/threonine-protein kinase 1 (Homo sapiens, UniProt Q9BXA7); format: functional
[25] = target: MAP kinase-activated protein kinase 5 (Homo sapiens, UniProt Q8IW41); format: functional;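 further: measured as one member of a kinome panel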
[26] = target: RAC-alpha serine/threonine-protein kinase (Homo sapiens, UniProt P31749); format: functional;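 further: AKT1 affinity measured as one member of a kinome-wide kinase profiling panel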
[27] = target: Tyrosine-protein kinase SYK (Homo sapiens, UniProt P43405); format: functional
[28] = target: Homeodomain-interacting protein kinase 4 (Homo sapiens, UniProt Q8NE63); format: functional
[29] = target: Proto-oncogene tyrosine-protein kinase Src (Homo sapiens, UniProt P12931); format: functional;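 further: SRC entry within a kinome-wide kinase profiling panel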
[30] = target: Phosphorylase b kinase gamma catalytic chain, liver/testis isoform (Homo sapiens, UniProt P15735); format: functional;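 further: PHKG2 measured as one member of a kinome-wide kinase panel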
[31] = target: STE20-like serine/threonine-protein kinase (Homo sapiens, UniProt Q9H2G2); format: functional
[32] = target: Calcium/calmodulin-dependent protein kinase type II subunit beta (Homo sapiens, UniProt Q13554); format: functional
Calcium/calmodulin-dependent protein kinase type II subunit beta, sequence (Q13554 whole entry): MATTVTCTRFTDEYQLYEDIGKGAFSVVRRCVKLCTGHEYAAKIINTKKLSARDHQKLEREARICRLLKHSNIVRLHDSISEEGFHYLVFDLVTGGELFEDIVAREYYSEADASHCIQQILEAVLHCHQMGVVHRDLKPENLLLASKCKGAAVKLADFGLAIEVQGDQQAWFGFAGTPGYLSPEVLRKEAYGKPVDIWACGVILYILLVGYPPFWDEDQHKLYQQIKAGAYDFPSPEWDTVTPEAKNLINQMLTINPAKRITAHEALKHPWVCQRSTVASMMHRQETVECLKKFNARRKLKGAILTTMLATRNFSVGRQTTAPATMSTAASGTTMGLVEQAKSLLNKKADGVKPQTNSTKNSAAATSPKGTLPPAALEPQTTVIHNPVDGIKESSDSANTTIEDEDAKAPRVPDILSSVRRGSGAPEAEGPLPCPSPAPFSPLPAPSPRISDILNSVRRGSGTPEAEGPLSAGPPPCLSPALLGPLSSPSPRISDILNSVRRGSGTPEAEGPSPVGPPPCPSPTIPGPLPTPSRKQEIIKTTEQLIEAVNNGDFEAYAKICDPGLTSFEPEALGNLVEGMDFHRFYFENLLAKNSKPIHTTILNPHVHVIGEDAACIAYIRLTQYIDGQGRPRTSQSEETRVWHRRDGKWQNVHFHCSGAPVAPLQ

Calcium/calmodulin-dependent protein kinase type II subunit gamma, sequence (Q13555 whole entry): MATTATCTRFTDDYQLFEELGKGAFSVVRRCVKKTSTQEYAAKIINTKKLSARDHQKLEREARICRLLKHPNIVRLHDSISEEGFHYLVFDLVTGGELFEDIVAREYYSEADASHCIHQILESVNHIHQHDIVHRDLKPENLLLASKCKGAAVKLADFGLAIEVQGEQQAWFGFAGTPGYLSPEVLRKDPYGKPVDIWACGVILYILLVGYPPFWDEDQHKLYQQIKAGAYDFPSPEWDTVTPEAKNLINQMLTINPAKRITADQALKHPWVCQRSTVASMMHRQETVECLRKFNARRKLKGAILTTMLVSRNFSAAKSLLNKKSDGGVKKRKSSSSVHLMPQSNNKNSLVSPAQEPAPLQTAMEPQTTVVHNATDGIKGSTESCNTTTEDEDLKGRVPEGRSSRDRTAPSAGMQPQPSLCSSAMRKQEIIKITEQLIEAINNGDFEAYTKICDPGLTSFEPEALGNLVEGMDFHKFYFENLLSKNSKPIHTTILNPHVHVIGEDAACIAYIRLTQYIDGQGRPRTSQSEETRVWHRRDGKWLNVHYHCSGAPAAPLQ
Casein kinase II subunit alpha, sequence (P68400 whole entry): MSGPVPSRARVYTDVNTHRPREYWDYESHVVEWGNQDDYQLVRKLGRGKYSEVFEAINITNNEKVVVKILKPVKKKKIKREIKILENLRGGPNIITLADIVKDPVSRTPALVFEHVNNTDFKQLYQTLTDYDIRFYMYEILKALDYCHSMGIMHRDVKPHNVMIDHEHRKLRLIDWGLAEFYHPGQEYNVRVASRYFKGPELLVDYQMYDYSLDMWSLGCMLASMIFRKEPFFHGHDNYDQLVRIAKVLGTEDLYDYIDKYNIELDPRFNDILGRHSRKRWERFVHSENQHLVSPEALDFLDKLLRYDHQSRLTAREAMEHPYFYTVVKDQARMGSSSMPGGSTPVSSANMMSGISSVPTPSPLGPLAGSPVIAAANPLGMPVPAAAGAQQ
Vascular endothelial growth factor receptor 3, sequence (P35916 whole entry): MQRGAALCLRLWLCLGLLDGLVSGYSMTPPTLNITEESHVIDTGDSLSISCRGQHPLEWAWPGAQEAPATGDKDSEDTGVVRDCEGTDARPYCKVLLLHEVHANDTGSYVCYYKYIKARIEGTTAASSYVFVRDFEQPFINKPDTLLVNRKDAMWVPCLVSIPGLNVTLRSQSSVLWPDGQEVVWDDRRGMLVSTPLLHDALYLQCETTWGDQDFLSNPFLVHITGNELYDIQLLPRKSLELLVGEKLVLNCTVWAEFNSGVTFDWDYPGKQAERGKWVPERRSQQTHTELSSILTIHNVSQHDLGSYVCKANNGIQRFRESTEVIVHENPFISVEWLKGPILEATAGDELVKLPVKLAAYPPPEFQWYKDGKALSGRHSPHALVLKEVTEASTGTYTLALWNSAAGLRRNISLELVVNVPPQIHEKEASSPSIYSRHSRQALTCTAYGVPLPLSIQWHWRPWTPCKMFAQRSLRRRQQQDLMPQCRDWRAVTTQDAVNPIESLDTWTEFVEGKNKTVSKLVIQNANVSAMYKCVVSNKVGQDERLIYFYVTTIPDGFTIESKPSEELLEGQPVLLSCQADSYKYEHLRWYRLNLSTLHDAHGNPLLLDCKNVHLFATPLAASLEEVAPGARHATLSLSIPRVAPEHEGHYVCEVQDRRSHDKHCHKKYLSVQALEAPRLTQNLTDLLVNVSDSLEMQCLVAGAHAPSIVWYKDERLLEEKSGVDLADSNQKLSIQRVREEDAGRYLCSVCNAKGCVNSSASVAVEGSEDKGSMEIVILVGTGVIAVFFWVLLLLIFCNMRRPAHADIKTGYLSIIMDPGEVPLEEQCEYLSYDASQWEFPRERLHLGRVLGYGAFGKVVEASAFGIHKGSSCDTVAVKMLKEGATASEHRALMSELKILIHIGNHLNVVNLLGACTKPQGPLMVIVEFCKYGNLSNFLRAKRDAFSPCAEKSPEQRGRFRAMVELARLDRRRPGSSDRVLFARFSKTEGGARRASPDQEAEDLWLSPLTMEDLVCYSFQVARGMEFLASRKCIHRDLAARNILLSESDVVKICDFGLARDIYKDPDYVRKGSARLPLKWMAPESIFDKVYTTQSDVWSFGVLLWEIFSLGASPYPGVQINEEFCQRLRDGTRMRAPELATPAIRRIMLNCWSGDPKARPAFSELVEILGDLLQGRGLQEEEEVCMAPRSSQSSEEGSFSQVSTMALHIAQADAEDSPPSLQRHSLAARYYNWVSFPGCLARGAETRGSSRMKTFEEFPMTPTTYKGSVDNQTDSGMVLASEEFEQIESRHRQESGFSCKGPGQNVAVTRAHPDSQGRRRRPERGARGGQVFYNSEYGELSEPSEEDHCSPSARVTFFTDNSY
Serine/threonine-protein kinase BRSK1, sequence (Q8TDC3 whole entry): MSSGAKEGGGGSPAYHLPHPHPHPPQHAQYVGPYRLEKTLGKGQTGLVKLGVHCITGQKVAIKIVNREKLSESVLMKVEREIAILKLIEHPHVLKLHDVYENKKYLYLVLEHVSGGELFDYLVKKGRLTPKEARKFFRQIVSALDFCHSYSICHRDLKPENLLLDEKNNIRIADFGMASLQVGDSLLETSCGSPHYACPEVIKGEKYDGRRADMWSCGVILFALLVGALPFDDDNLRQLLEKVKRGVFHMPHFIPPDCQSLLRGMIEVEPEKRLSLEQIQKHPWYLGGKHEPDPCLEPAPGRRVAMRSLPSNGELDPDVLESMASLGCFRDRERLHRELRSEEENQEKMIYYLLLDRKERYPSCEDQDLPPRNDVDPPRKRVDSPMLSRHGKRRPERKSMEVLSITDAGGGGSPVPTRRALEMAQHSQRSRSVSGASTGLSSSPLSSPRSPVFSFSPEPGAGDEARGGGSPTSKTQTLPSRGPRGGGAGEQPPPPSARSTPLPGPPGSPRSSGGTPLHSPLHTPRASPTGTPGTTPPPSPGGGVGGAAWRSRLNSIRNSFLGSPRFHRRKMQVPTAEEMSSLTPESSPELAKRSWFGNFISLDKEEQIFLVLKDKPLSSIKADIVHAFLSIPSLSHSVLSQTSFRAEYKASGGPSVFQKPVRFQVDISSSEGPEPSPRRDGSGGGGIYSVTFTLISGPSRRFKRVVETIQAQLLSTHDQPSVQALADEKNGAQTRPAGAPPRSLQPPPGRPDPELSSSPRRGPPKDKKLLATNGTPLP
Interleukin-1 receptor-associated kinase 4, sequence (Q9NWZ3 whole entry): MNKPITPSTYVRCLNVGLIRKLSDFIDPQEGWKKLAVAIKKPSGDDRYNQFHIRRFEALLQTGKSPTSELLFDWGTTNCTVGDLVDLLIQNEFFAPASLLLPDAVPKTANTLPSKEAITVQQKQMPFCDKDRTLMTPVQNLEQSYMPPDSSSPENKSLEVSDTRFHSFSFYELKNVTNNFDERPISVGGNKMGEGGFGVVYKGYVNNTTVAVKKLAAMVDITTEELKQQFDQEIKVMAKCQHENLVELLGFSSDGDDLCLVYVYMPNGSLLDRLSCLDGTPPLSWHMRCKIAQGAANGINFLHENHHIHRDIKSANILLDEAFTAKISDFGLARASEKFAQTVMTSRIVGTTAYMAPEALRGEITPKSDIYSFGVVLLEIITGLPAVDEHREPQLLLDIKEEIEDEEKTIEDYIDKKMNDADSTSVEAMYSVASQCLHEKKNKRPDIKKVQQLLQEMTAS
Megakaryocyte-associated tyrosine-protein kinase, sequence (P42679 whole entry): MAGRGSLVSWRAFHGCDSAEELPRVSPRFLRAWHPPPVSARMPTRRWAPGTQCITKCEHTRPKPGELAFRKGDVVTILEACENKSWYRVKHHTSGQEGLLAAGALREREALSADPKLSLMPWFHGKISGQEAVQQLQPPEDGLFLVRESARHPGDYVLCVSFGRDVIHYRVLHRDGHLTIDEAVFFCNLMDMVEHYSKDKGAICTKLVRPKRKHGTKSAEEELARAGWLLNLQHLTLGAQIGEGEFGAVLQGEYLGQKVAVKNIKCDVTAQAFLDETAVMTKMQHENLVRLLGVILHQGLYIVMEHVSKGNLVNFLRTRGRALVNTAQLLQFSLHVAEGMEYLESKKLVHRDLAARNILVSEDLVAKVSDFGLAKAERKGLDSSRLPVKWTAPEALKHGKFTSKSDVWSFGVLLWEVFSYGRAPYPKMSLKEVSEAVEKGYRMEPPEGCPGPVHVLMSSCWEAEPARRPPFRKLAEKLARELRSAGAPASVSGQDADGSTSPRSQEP

Cc1ccc(NC2=C(NCCO)C(=O)c3ccccc3C2=O)cc1
AC50 [1]: 40.3 µM (active) | IC50 [2]: 65.1 µM (inactive) | IC50 [3]: 15.7 µM (active)

CC(/C=C1\SC(=S)N(NS(=O)(=O)c2ccc(C)cc2)C1=O)=C\c1ccccc1
EC50 [4]: 8.34 µM (active) | EC50 [5]: 1.41 µM (active)

COc1ccc(C2=NNc3cccc4c(OC)ccc2c34)cc1OC
Ki [6]: > 2.51 µM (inactive)

CN1CCC(c2c(O)cc(O)c3c(=O)cc(-c4ccccc4Cl)oc23)C(O)C1 (centres undefined)
Ki [7]: > 6.31 µM (inactive) | Ki [8]: 1.26 µM (active) | Ki [9]: 316 nM (active) | Ki [10]: > 2 µM (inactive) | Ki [11]: 1.26 µM (active) | Ki [12]: 5.01 µM (active) | Ki [13]: > 10 µM (inactive) | Ki [14]: 3.16 µM (active) | Ki [15]: > 6.31 µM (inactive) | Ki [16]: > 6.31 µM (inactive) | Ki [17]: > 7.94 µM (inactive) | Ki [18]: > 3.98 µM (inactive) | Ki [19]: > 1.58 µM (inactive) | Ki [20]: > 6.31 µM (inactive) | Ki [21]: > 6.31 µM (inactive) | Ki [22]: 1 µM (active) | pKi [22]: 6 | Ki [23]: > 7.94 µM (inactive) | Ki [24]: > 1.58 µM (inactive) | Ki [25]: > 1.58 µM (inactive) | Ki [26]: > 7.94 µM (inactive) | Ki [27]: 794 nM (active) | Ki [28]: > 7.94 µM (inactive) | Ki [29]: > 2 µM (inactive) | Ki [30]: > 5.01 µM (inactive) | Ki [31]: > 10 µM (inactive) | Ki [32]: 5.01 µM (active) | pKi [32]: 5.3
